ChEMBL document CHEMBL2434943, “Elaboration of thorough simplified vinca alkaloids as antimitotic agents based on pharmacophore similarity” (Eur J Med Chem, 2013)
The source made the active and inactive calls. The calls are words filed in the database; no cut-off is given here.

What was measured:
HepG2 [1] = assay: Cell cycle arrest in human HepG2 cells assessed as accumulation at subG1 phase at 3 uM after 48 hrs by propidium iodide staining-based flow cytometric analysis (reference value: 1.2%); type: functional
MCF7 [2] = assay: Cell cycle arrest in human MCF7 cells assessed as accumulation at subG1 phase at 3 uM after 36 hrs by propidium iodide staining-based flow cytometric analysis (reference value: 1.2%); type: functional
MDA-MB-231 = assay: Cytotoxicity against human MDA-MB-231 cells assessed as growth inhibition after 72 hrs by MTT assay; type: functional, cell-based; conditions: MDA-MB-231, 72 h
HepG2 [3] = assay: Cytotoxicity against human HepG2 cells assessed as growth inhibition after 72 hrs by MTT assay; type: functional, cell-based; conditions: HepG2, 72 h
HepG2 [4] = assay: Cell cycle arrest in human HepG2 cells assessed as accumulation at G2/M phase at 10 uM after 48 hrs by propidium iodide staining-based flow cytometric analysis (reference value: 22.4%); type: functional
MCF7 [5] = assay: Cell cycle arrest in human MCF7 cells assessed as accumulation at G2/M phase at 1 uM after 36 hrs by propidium iodide staining-based flow cytometric analysis (reference value: 19%); type: functional
HepG2 [6] = assay: Cell cycle arrest in human HepG2 cells assessed as accumulation at S phase at 3 uM after 48 hrs by propidium iodide staining-based flow cytometric analysis (reference value: 10.5%); type: functional
HepG2 [7] = assay: Cell cycle arrest in human HepG2 cells assessed as accumulation at subG1 phase at 10 uM after 48 hrs by propidium iodide staining-based flow cytometric analysis (reference value: 1.2%); type: functional
HepG2 [8] = assay: Cell cycle arrest in human HepG2 cells assessed as accumulation at G0/G1 phase at 10 uM after 48 hrs by propidium iodide staining-based flow cytometric analysis (reference value: 65.9%); type: functional
HepG2 [9] = assay: Cell cycle arrest in human HepG2 cells assessed as accumulation at G2/M phase at 3 uM after 48 hrs by propidium iodide staining-based flow cytometric analysis (reference value: 22.4%); type: functional
MCF7 [10] = assay: Cell cycle arrest in human MCF7 cells assessed as accumulation at S phase at 3 uM after 36 hrs by propidium iodide staining-based flow cytometric analysis (reference value: 12.5%); type: functional
HepG2 [11] = assay: Cell cycle arrest in human HepG2 cells assessed as accumulation at S phase at 10 uM after 48 hrs by propidium iodide staining-based flow cytometric analysis (reference value: 10.5%); type: functional
MCF7 [12] = assay: Cell cycle arrest in human MCF7 cells assessed as accumulation at G0/G1 phase at 3 uM after 36 hrs by propidium iodide staining-based flow cytometric analysis (reference value: 67.3%); type: functional
MCF7 [13] = assay: Cell cycle arrest in human MCF7 cells assessed as accumulation at G0/G1 phase at 1 uM after 36 hrs by propidium iodide staining-based flow cytometric analysis (reference value: 67.3%); type: functional
HepG2 [14] = assay: Cell cycle arrest in human HepG2 cells assessed as accumulation at S phase at 5 uM after 48 hrs by propidium iodide staining-based flow cytometric analysis (reference value: 10.5%); type: functional
MCF7 [15] = assay: Cell cycle arrest in human MCF7 cells assessed as accumulation at subG1 phase at 5 uM after 36 hrs by propidium iodide staining-based flow cytometric analysis (reference value: 1.2%); type: functional
MCF7 [16] = assay: Cell cycle arrest in human MCF7 cells assessed as accumulation at subG1 phase at 1 uM after 36 hrs by propidium iodide staining-based flow cytometric analysis (reference value: 1.2%); type: functional
HepG2 [17] = assay: Antimitotic activity in human HepG2 cells assessed as disruption of microtubule network at 5 uM by DAPI staining-based laser scanning confocal microscopic analysis; type: functional, cell-based; conditions: TDE = time-dependent effect
[18] = Cytotoxicity against KM mouse splenic lymphocytes assessed as growth inhibition after 72 hrs by MTT assay; conditions: Splenic lymphocyte
MCF7 [19] = assay: Cell cycle arrest in human MCF7 cells assessed as accumulation at S phase at 1 uM after 36 hrs by propidium iodide staining-based flow cytometric analysis (reference value: 12.5%); type: functional
HepG2 [20] = assay: Cell cycle arrest in human HepG2 cells assessed as accumulation at G0/G1 phase at 5 uM after 48 hrs by propidium iodide staining-based flow cytometric analysis (reference value: 65.9%); type: functional
MCF7 [21] = assay: Cell cycle arrest in human MCF7 cells assessed as accumulation at G0/G1 phase at 5 uM after 36 hrs by propidium iodide staining-based flow cytometric analysis (reference value: 67.3%); type: functional
HepG2 [22] = assay: Antimitotic activity in human HepG2 cells assessed as cell morphological changes at 5 uM after 3 to 12 hrs by DAPI staining-based laser scanning confocal microscopic analysis; type: functional
HepG2 [23] = assay: Cytotoxicity against adriamycin-resistant human HepG2 cells assessed as growth inhibition after 72 hrs by MTT assay; type: functional, cell-based; conditions: HepG2, 72 h
HepG2 [24] = assay: Cell cycle arrest in human HepG2 cells assessed as accumulation at G0/G1 phase at 3 uM after 48 hrs by propidium iodide staining-based flow cytometric analysis (reference value: 65.9%); type: functional
HepG2 [25] = assay: Cell cycle arrest in human HepG2 cells assessed as accumulation at subG1 phase at 5 uM after 48 hrs by propidium iodide staining-based flow cytometric analysis (reference value: 1.2%); type: functional
MCF7 [26] = assay: Cell cycle arrest in human MCF7 cells assessed as accumulation at G2/M phase at 3 uM after 36 hrs by propidium iodide staining-based flow cytometric analysis (reference value: 19%); type: functional
MCF7 [27] = assay: Cell cycle arrest in human MCF7 cells assessed as accumulation at S phase at 5 uM after 36 hrs by propidium iodide staining-based flow cytometric analysis (reference value: 12.5%); type: functional
Tubulin (Homo sapiens) = Tubulin (Homo sapiens) (UniProt P68371+Q9H4B7+P0DPH7+P68366+Q13509+Q71U36+P04350+Q3ZCM7+P07437+P68363+Q9BQE3+Q6PEY2+Q13885+Q9BVA1+Q9BUF5); assay: Inhibition of tubulin polymerization (unknown origin) at 3 to 10 uM after 90 mins; type: protein-complex assay
MCF7 [28] = assay: Cell cycle arrest in human MCF7 cells assessed as accumulation at G2/M phase at 5 uM after 36 hrs by propidium iodide staining-based flow cytometric analysis (reference value: 19%); type: functional
MCF7 [29] = assay: Cytotoxicity against human MCF7 cells assessed as growth inhibition after 72 hrs by MTT assay; type: functional, cell-based; conditions: MCF7, 72 h
HepG2 [30] = assay: Cell cycle arrest in human HepG2 cells assessed as accumulation at G2/M phase at 5 uM after 48 hrs by propidium iodide staining-based flow cytometric analysis (reference value: 22.4%); type: functional
K562 = assay: Cytotoxicity against human K562 cells assessed as growth inhibition after 72 hrs by MTT assay; type: functional, cell-based; conditions: K562, 72 h

Question: Which Activity (HepG2 [1]) does the source give for CC1(C)C(/C=C/c2cccc([N+](=O)[O-])c2)=Nc2ccccc21 here?
Answer: 2.9%

Question: What about the Activity (MCF7 [2]) of the same compound?
Answer: 9.7%

Question: What about the IC50 (MDA-MB-231) of the same compound?
Answer: 1.87 µM

Question: What about the IC50 (HepG2 [3]) of the same compound?
Answer: 5.04 µM

Question: And the Activity (HepG2 [4])?
Answer: 52.1%

Question: And the Activity (MCF7 [5])?
Answer: 28%

Question: And the Activity (HepG2 [6])?
Answer: 8.2%

Question: What about the Activity (HepG2 [7]) of the same compound?
Answer: 2.5%

Question: And the Activity (HepG2 [8])?
Answer: 36.8%

Question: What about the Activity (HepG2 [9]) of the same compound?
Answer: 37.6%

Question: And the Activity (MCF7 [10])?
Answer: 10%

Question: And the Activity (HepG2 [11])?
Answer: 8.6%

Question: What about the Activity (MCF7 [12]) of the same compound?
Answer: 40.6%

Question: What about the Activity (MCF7 [13]) of the same compound?
Answer: 56.8%

Question: And the Activity (HepG2 [14])?
Answer: 9.9%

Question: And the Activity (MCF7 [15])?
Answer: 21.4%

Question: And the Activity (MCF7 [16])?
Answer: 1.2%

Question: And the Activity (HepG2 [17])?
Answer: tde

Question: What about the IC50 [18] of the same compound?
Answer: 18.8 µM

Question: What about the Activity (MCF7 [19]) of the same compound?
Answer: 14%

Question: What about the Activity (HepG2 [20]) of the same compound?
Answer: 15.3%

Question: And the Activity (MCF7 [21])?
Answer: 19.6%

Question: And the Activity (HepG2 [22])?
Answer: Active

Question: What about the IC50 (HepG2 [23]) of the same compound?
Answer: 2.27 µM

Question: And the Activity (HepG2 [24])?
Answer: 51.3%

Question: And the Activity (HepG2 [25])?
Answer: 3.5%

Question: And the Activity (MCF7 [26])?
Answer: 39.7%

Question: What about the Activity (MCF7 [27]) of the same compound?
Answer: 12.3%

Question: What about the inhibition (Tubulin (Homo sapiens)) of the same compound?
Answer: Active

Question: And the Activity (MCF7 [28])?
Answer: 46.7%

Question: And the IC50 (MCF7 [29])?
Answer: 0.89 µM

Question: And the Activity (HepG2 [30])?
Answer: 71.3%

Question: What about the IC50 (K562) of the same compound?
Answer: 4.38 µM
